From article PMC3236199, “Development of Derivatives of 3, 3′-Diindolylmethane as Potent Leishmania donovani Bi-Subunit Topoisomerase IB Poisons” (PLoS ONE, 2011)

Experiments:
LdTOP1LS = test: Plasmid cleavage assay; type: biochemical, Leishmania donovani; conditions: 50 µM, pHOT1 DNA
Protocol: Cleavage assay was carried out as described previously. Briefly, 50 fmol of pHOT1 supercoiled DNA (containing topoisomerase I cleavage site) and 100 fmol of reconstituted LdTOP1LS were incubated in standard reaction mixture (50 µl) containing 50 mM Tris/HCl (pH 7.5), 100 mM KCl, 10 mM MgCl2, 0.5 mM DTT, 0.5 mM EDTA and 30 µg/ml BSA in the presence of various concentrations of drugs at 37°C for 30 min. The reactions were terminated by adding 1% SDS and 150 µg/ml proteinase K and further incubated for 1 h at 37°C. DNA samples were electrophoresed in a 1% agarose gel containing 0.5 µg/ml EtBr.
The effect of DIM and its derivatives on L. donovani topoisomerase I was examined by plasmid DNA cleavage assay as described. The topoisomerase reaction has three general mechanistic steps: (i) binding of enzyme to the substrate DNA, (ii) single strand breakage and subsequent strand rotation through the break leading to change in linking number, and (iii) strand religation. The second step of reaction is the introduction of a single-stranded nick in the phosphodiester bond of the DNA, through which an intact strand is allowed to pass. […]

[1] = test system: L. donovani topoisomerase I; test: Immunoband depletion assay, topoisomerase I; type: cell-based, Leishmania donovani; conditions: preincubation with 20 µM DHBA before DIM, DPDIM, DMDIM or DMODIM
Protocol: Leishmania cells (3×10^7) were cultured in absence and presence of the drugs. Nuclear fractions were isolated as described. Briefly, cells were suspended in hypotonic buffer (10 mM Tris-HCl, pH 7.5, 1 mM EDTA, 0.1 mM EGTA, 1 mM PMSF, 1 mM benzamidine hydrochloride and 5 mM DTT) and homogenized. The homogenate was centrifuged for 10 min at 10,000 g. The pellets were washed and used as the source of nuclear fraction. Thereafter, the nuclear fractions were lysed with 1% SDS and subjected to SDS-PAGE (10%). The proteins were electrophoretically transferred to nitrocellulose membranes and immumobloting of immobilized proteins were carried out using a rabbit polyclonal antibody raised against LdTOP1S for topoisomerase I and ATPase domain of L. donovani topoisomerase II [8].
We have reported earlier that DIM induces topoisomerase I and not topoisomerase II-mediated cleavable complex formation in L. donovani. To investigate the ability of DIM derivatives to induce in vivo covalent complex formation between topoisomerase I and DNA in the Leishmania parasites we performed the immunoband depletion experiments with L. donovani promastigotes. Nuclear fractions were prepared from untreated as well as drug-treated promastigotes and subjected to SDS-PAGE. If topoisomerase I can form a covalent complex with genomic DNA inside the cells, then topoisomerase I-DNA cleavable complex cannot enter into the gel. […] The presence of topoisomerase I was detected by immunoblotting as described in ‘Materials and Methods’. It was observed that the immunoband of topoisomerase I disappeared in presence of 20 µM of DIM, DPDIM, DMDIM and DMODIM for 6 h incubation respectively (lanes 2–5). […] It should be mentioned here that topoisomerase I of Leishmania is a heterodimer and the catalytic site (SKXXY) is present in the small subunit of enzyme (LdTOP1S), which is involved in the formation of topoisomerase I-DNA covalent complex. So we have used the antibody raised against the small subunit of L. donovani topoisomerase I to study the immunoband depletion assay.
Figure 6 DIM-derivatives induce in vivo formation of topoisomerase-DNA cleavable complex within the cells. Stabilization of topoisomerase-I mediated cleavable complex was determined by immunoband depletion assay. Top panel: Immunoband depletion of L. donovani topoisomerase I, using an antibody raised against […]. Leishmanial cells were treated with 0.2% DMSO alone (lane 1), 20 µM each of DIM (lane 2), DPDIM (lane 3), DMDIM (lane 4) and DMODIM (lane 5) respectively. Lanes 6–9, preincubation with 20 µM DHBA before treatment with DIM, DPDIM, DMDIM and DMODIM respectively. Bottom panel: β-tubulin loading control.

CC[C@@]1(O)C(=O)OCc2c1cc1n(c2=O)Cc2cc3ccccc3nc2-1 [CPT, camptothecin, reference compound]
conversion of closed circular DNA (form I) to nicked circular DNA (form II) (LdTOP1LS): totally converted to nicked circular DNA

CC(C)[C@@H]1CC[C@]2(C(=O)O)CC[C@]3(C)C(CCC4[C@@]5(C)CC[C@H](O)C(C)(C)C5CC[C@]43C)C12 (some centres unmarked) [DHBA, reference compound]
immunoband of topoisomerase I after preincubation before treatment with drugs [1]: reappearance of immunoband
